Test system: Pseudomonas aeruginosa PAM1001
Test: Checkerboard assay (broth microdilution): levofloxacin MIC in presence of efflux pump inhibitor
Format: cell-based
Procedure: Potentiation effect is observed by the reduction of the minimum inhibitory concentration of levofloxacin in the presence of the experimental efflux pump inhibitor. The activity of efflux pump inhibitors (EPI) in combination with fluoroquinolones, such as levofloxacin, is assessed by the checkerboard assay (Antimicrobial Combinations. In Antibiotics in Laboratory Medicine, Ed. Victor Lorian, M.D., Fourth edition, 1996, pp 333-338) using broth microdilution method performed as recommended by the NCCLS (National Committee for Clinical Laboratory Standards (NCCLS). 1997. Methods for Dilution of Antimicrobial Susceptibility Tests for Bacteria That Grow Aerobically—Fourth Edition; Approved Standard. NCCLS Document M7-A4, Vol 17 No.2). The test organism used is Pseudomonas aeruginosa PAM1001. […] The compounds tabulated below are representative of the described invention.
In this assay, multiple dilutions of two drugs, namely the EPI and levofloxacin, are being tested, alone and in combination, at concentrations equal to, above and below their respective minimal inhibitory concentrations (MICs). In the case of EPI, most of these compounds are devoid of intrinsic antimicrobial activity and are tested at the maximum concentration of 40 μg/mL. The MIC of levofloxacin against P. aeruginosa PAM1001 is 4 μg/mL.
The EPI tested are readily soluble in water and stock solutions are prepared at a final concentration of 2 mg/mL. Stock solutions are further diluted, according to the needs of a particular assay, in Mueller Hinton Broth (MHB). Stock solution can be stored at −80° C. Quinolones are solubilized according to the instructions of the manufacturers, at a concentration of 1 mg/mL. They are then further diluted in MB. Stock solution can be stored at −80° C.
The checkerboard assay is performed in microtiter plates. Levofloxacin is diluted in the x axis, each column containing a single concentration of levofloxacin. The EPI is diluted in the y axis, each row containing an equal concentration of EPI. The result of these manipulations is that each well of the microtiter plate contains a unique combination of concentrations of the two agents. Each EPI are tested independently.
The assay is performed in MHB with a final bacterial inoculum of 5×10^5 CFU/mL (from an early-log phase culture). Microtiter plates are incubated during 20 h at 35° C. and are read using a microtiterplate reader (Molecular Devices) at 650 nm as well as visual observation using a microtiter plate reading mirror.

C[C@H]1COc2c(N3CCN(C)CC3)c(F)cc3c(=O)c(C(=O)O)cn1c23 [levofloxacin, reference compound]
4 µg/mL: MIC (Pseudomonas aeruginosa, PAM1001, read-out: MIC of levofloxacin against P. aeruginosa PAM1001)

NCCC[C@@H](N)C(=O)N[C@H](CCc1ccccc1)C(O)c1nc2ncccc2o1.O=C(O)C(F)(F)F (mixture of isomers) [Compound 36, (2R)-2,5-Diamino-N-[(1R)-1-[(RS)-(1-oxazolo[4,5-b]pyridin-2-yl)-hydroxymethyl]-3-phenylpropyl]valeramide Trifluoroacetate]
4 µg/mL: Levofloxacin MIC Against P. aeruginosa PAM1001 in Presence of Efflux Pump Inhibitor (EPI), Minimum Inhibitory Concentration (EPI Conc. 0 μg/mL (levofloxacin alone)) | Levofloxacin MIC Against P. aeruginosa PAM1001 in Presence of Efflux Pump Inhibitor (EPI), Minimum Inhibitory Concentration (EPI Conc. 0.625 μg/mL) | Levofloxacin MIC Against P. aeruginosa PAM1001 in Presence of Efflux Pump Inhibitor (EPI), Minimum Inhibitory Concentration (EPI Conc. 1.25 μg/mL) | Levofloxacin MIC Against P. aeruginosa PAM1001 in Presence of Efflux Pump Inhibitor (EPI), Minimum Inhibitory Concentration (EPI Conc. 2.5 μg/mL) | Levofloxacin MIC Against P. aeruginosa PAM1001 in Presence of Efflux Pump Inhibitor (EPI), Minimum Inhibitory Concentration (EPI Conc. 5 μg/mL) | Levofloxacin MIC Against P. aeruginosa PAM1001 in Presence of Efflux Pump Inhibitor (EPI), Minimum Inhibitory Concentration (EPI Conc. 10 μg/mL)
2 µg/mL: Levofloxacin MIC Against P. aeruginosa PAM1001 in Presence of Efflux Pump Inhibitor (EPI), Minimum Inhibitory Concentration (EPI Conc. 20 μg/mL) | Levofloxacin MIC Against P. aeruginosa PAM1001 in Presence of Efflux Pump Inhibitor (EPI), Minimum Inhibitory Concentration (EPI Conc. 40 μg/mL)

From patent US6436980B1, “Peptidomimetic efflux pump inhibitors” (priority 1998, dated 2002)
